According to ChEMBL document CHEMBL1157956, “Aegicerin, the first oleanane triterpene with wide-ranging antimycobacterial activity, isolated from Clavija procera” (J Nat Prod, 2006):
Values after ≈ are worked out from the molar mass of the structure shown.

Experiments:
[1] = test system: Mycobacterium tuberculosis; test: Antimicrobial activity against multidrug-resistant Mycobacterium tuberculosis isolate by alamar blue assay; type: functional
[2] = test system: Mycobacterium tuberculosis; test: Antimicrobial activity against isoniazid-resistant Mycobacterium tuberculosis isolate by alamar blue assay; type: functional

Structure (SMILES)	MIC [1] [µg/mL]	MIC [2] [µg/mL]
CC1(C)CC[C@]23CO[C@@]4(CC[C@@H]5[C@@]6(C)CC[C@H](O)C(C)(C)[C@@H]6CC[C@@]5(C)[C@]4(C)CC2=O)[C@@H]3C1 [AEGICERIN]	1.6 (≈ 3.5 µM)	1.6 (≈ 3.5 µM)
NNC(=O)c1ccncc1 [ISONIAZID]	> 4	2 (≈ 14.6 µM)
CC1(C)CC[C@]23CO[C@@]4(CC[C@@H]5[C@@]6(C)CC[C@H](O)C(C)(C)[C@@H]6CC[C@@]5(C)[C@]4(C)C[C@H]2O)[C@@H]3C1 [PROTOPRIMULAGENIN A]	200 (≈ 436 µM)	200 (≈ 436 µM)
CO[C@H]1/C=C/O[C@@]2(C)Oc3c(C)c(O)c4c(O)c(c(/C=N/N5CCN(C)CC5)c(O)c4c3C2=O)NC(=O)/C(C)=C\C=C\[C@H](C)[C@H](O)[C@@H](C)[C@@H](O)[C@@H](C)[C@H](OC(C)=O)[C@@H]1C [RIFAMPIN]	> 2	0.063 (≈ 0.0766 µM)
